Laboratory results as given in patent publication US20240300977A1, “INHIBITORS OF DNA-DEPENDENT PROTEIN KINASE AND COMPOSITIONS AND USES THEREOF” (Intellia Therapeutics, Inc., priority 2021, published 2024).
Where “and” joins values, the source holds several entries; their conditions need not be identical. Equal entries are not always repeated.

Experiments:
T cells [1] = assay: Fold T cell expansion following TRBC/TRAC editing with WT1-TCR AAV and DNA-PK inhibitors; conditions: Table 4
T cells [2] = assay: TRAC LNP editing and GFP insertion in activated T cells with DNA-PK inhibitors, flow cytometry; conditions: day 5 post-edit; for Mean % CD3^−/GFP+ Cells (n = 3): GFP positive of the CD3 negative T cells; for Mean % CD3^− Cells (n = 3): TRAC LNP + GFP AAV
TRAC = conditions: human
[3] = system: K562-luc2 cells transduced to express HLA-A*02:01; assay: WT1 TCR T cell mediated cytotoxicity, luciferase assay; assay type: cell-based, human; conditions: WT1-T cells (HD1) engineered with inhibitor, K562-HLA-A*02:01, 48h, duplicate values
Procedure: (§1) The ability of WT1-TCR T cells engineered from donors 007HD and 008HD to kill hematological cancer cells expressing natural levels of WT1 and release cytokines was evaluated. TCR KO cells generated as described above but without TRAC/AAV addition were used as a negative, non-killing control. Briefly, T cells were co-cultured with luciferase expressing 697 ALL cells (697-luc2), or K562-luc2 cells transduced to express HLA-A*02:01 (K5692-HLA-A*02:01-luc2) at various effector to target (E:T) ratios (2:1, 1:1, 0.5:1) in TCEM without the addition of IL-2, IL-7, or IL-15. […] After 24h of co-culture, supernatants from the 2:1 E:T ratio group were harvested and used in an MSD U/R-PLEX assay to quantify IL-2, TNFα, IFNγ, and Granzyme B following manufacturers protocol (Mesoscale Discovery). After 48h of co-culture luciferase activity was quantified using the Bright-GLO Luciferase Assay System (Promega) in relative luminescence units (RLU). Percent specific lysis was determined using the formula:
(§2) % Specific Lysis=100−((RLU[Experimental Well]/RLU[Target Only Well])*100)

697 ALL cells (697-luc2) [4] = assay: as above; assay type: cell-based, human; conditions: WT1-T cells (HD1) engineered with inhibitor, 48h, duplicate values
Procedure: as §1, §2

T cells [5] = assay: Off-target structural variation by UnIT; assay type: cell-based, human; conditions: T cells from Example 12, day 8 post-editing; TRAC sgRNA G013006
From the text: (§3) On day 8 post-editing, T cells from Example 12 from the untreated, unedited, Compound 3 and Compound 4 guides samples were collected, spun down and the pellets were directly used as input material for gDNA isolation using “Zymo Quick DNA/RNA Mag Beads Kit” (Zymo Cat. R2131). The UnIT structural variant characterization assay was applied to these gDNA samples. High molecular weight genomic DNA is simultaneously fragmented and sequence-tagged (‘tagmented’) with the Tn5 transposase and an adapter with a partial Illumina P5 sequence and a 12 bp unique molecular identifier (UMI). Two sequential PCRs using a primer to P5 and hemi-nested gene specific primers (GSP) imparting the Illumina the P7 sequence to create two Illumina compatible NGS libraries per sample (Illumina, Ref 15033624). Sequencing across both directions of the CRISPR/Cas9 targeted cut site with the two libraries allows the inference and quantification of structural variants in DNA repair outcomes after genome editing. If the two fragments were aligned to different chromosomes, the SV was classified as an “inter-chromosomal translocation.” The magnitude of structural variation was shown in FIG. 9A and Table 18.

T cells [6] = assay: Insertion percent in T cells of Example 17; assay type: cell-based, human; conditions: T cells from Example 12; FIG. 9B
From the text: as §3

[7] = system: K562-luc2 cells transduced to express HLA-A*02:01; assay: Cytokine release by WT1 TCR T cells, MSD U/R-PLEX; assay type: cell-based, human; set-up: unit not given here; conditions: K562-HLA-A2.1, 2:1 E:T, 24h supernatant, T cells engineered with inhibitor, duplicate values
Procedure: as §1, with “formula: […]” for “formula:”

697 ALL cells (697-luc2) [8] = assay: Cytokine release by WT1 TCR T cells, MSD U/R-PLEX; assay type: cell-based, human; set-up: unit not given here; conditions: 2:1 E:T, 24h supernatant, T cells engineered with inhibitor, duplicate values
Procedure: as §1, with “formula: […]” for “formula:”

TRBC = assay: Off-target site validation, rhAmpSeq; conditions: gRNA G016239 targeting TRBC; of 92 off-target sites; with the named DNA-PKI or none

SMILES: Cc1cc2ncnn2c(C)c1Nc1ncc2c(n1)n(C1CCOCC1)c(=O)n2C [Compound 8, 2-((5,7-dimethyl-[1,2,4]triazolo[1,5-a]pyridin-6-yl)amino)-7-methyl-9-(tetrahydro-2H-pyran-4-yl)-7,9-dihydro-8H-purin-8-one]
- impact of T cell expansion by DNA-PK treatment (T cells [1]): no impact
- Mean % CD3^−/GFP+ Cells (n = 3) (T cells [2]; compound 0.0625 uM): 32.23%
- Mean % CD3^−/GFP+ Cells (n = 3) (T cells [2]; compound 1 uM): 70.07%

SMILES: Cc1cc2ncnn2cc1Nc1ncc2c(n1)n(C1CCC(F)(F)CC1)c(=O)n2C [Compound 3, 9-(4,4-difluorocyclohexyl)-7-methyl-2-((7-methyl-[1,2,4]triazolo[1,5-a]pyridin-6-yl)amino)-7,9-dihydro-8H-purin-8-one]
- Sites Validated (TRAC): 0
- Percent specific lysis ([3]; E:T 0.5, donor 007HD): 47.03% and 41.52%
- Percent specific lysis ([3]; E:T 0.5, donor 008HD): 72.45% and 71.77%
- Percent specific lysis ([3]; E:T 1, donor 007HD): 78.53% and 75.83%
- Percent specific lysis ([3]; E:T 1, donor 008HD): 98.67% and 99.08%
- Percent specific lysis ([3]; E:T 2, donor 007HD): 98.79% and 96.99%
- Percent specific lysis ([3]; E:T 2, donor 008HD): 99.96% and 99.84%
- Percent specific lysis (697 ALL cells (697-luc2) [4]; E:T 0.5, donor 007HD): 4.60% and 2.72%
- Percent specific lysis (697 ALL cells (697-luc2) [4]; E:T 0.5, donor 008HD): 63.10% and 72.62%
- Percent specific lysis (697 ALL cells (697-luc2) [4]; E:T 1, donor 007HD): 39.43% and 30.39%
- Percent specific lysis (697 ALL cells (697-luc2) [4]; E:T 1, donor 008HD): 95.29% and 94.31%
- Percent specific lysis (697 ALL cells (697-luc2) [4]; E:T 2, donor 007HD): 77.64% and 65.49%
- Percent specific lysis (697 ALL cells (697-luc2) [4]; E:T 2, donor 008HD): 98.98% and 98.97%
- Unintended Structural Variance (Average) (T cells [5]): 1.30%
- Insertion Percent (Average) (T cells [6]): 68.35%
- Granzyme B ([7]; donor 007HD): 17178.54 and 20713.6
- IFN-gamma ([7]; donor 007HD): 41527.06 and 59686.42
- TNF-alpha ([7]; donor 007HD): 66.56 and 73.76
- Granzyme B ([7]; donor 008HD): 17134.42 and 18197.02
- IFN-gamma ([7]; donor 008HD): 200584.6 and 216197.4
- IL-2 ([7]; donor 008HD): 484.52 and 524.89
- TNF-alpha ([7]; donor 008HD): 302.06 and 324.18
- Granzyme B (697 ALL cells (697-luc2) [8]; donor 007HD): 1441.06 and 1664.25
- IFN-gamma (697 ALL cells (697-luc2) [8]; donor 007HD): 923.97 and 977.71
- IL-2 (697 ALL cells (697-luc2) [8]; donor 007HD): 2.23 and 4.32
- TNF-alpha (697 ALL cells (697-luc2) [8]; donor 007HD): 5.29 and 3.46
- Granzyme B (697 ALL cells (697-luc2) [8]; donor 008HD): 1777.28 and 1609.68
- IFN-gamma (697 ALL cells (697-luc2) [8]; donor 008HD): 7169.43 and 6733.05
- IL-2 (697 ALL cells (697-luc2) [8]; donor 008HD): 8.1 and 7.14
- TNF-alpha (697 ALL cells (697-luc2) [8]; donor 008HD): 18.57 and 16.3
- Sites Validated (TRBC): 0
- Mean % CD3^−/GFP+ Cells (n = 3) (T cells [2]; compound 0.0625 uM): 75.50%
- Mean % CD3^− Cells (n = 3) (T cells [2]; compound 0.0625 uM): 50.73%
- Mean % CD3^−/GFP+ Cells (n = 3) (T cells [2]; compound 1 uM): 79.60%
- Mean % CD3^− Cells (n = 3) (T cells [2]; compound 1 uM): 58.90%

SMILES: Cc1cc2ncnn2cc1Nc1ncc2c(n1)n(C1CCOCC1)c(=O)n2C [Compound 1, 7-methyl-2-((7-methyl-[1,2,4]triazolo[1,5-a]pyridin-6-yl)amino)-9-(tetrahydro-2H-pyran-4-yl)-7,9-dihydro-8H-purin-8-one]
- Percent specific lysis ([3]; E:T 0.5, donor 007HD): 37.10% and 36.80%
- Percent specific lysis ([3]; E:T 0.5, donor 008HD): 56.76% and 58.18%
- Percent specific lysis ([3]; E:T 1, donor 007HD): 69.32% and 70.95%
- Percent specific lysis ([3]; E:T 1, donor 008HD): 83.56% and 79.54%
- Percent specific lysis ([3]; E:T 2, donor 007HD): 95.40% and 92.50%
- Percent specific lysis ([3]; E:T 2, donor 008HD): 99.29% and 99.66%
- Percent specific lysis (697 ALL cells (697-luc2) [4]; E:T 0.5, donor 007HD): 12.14% and 5.54%
- Percent specific lysis (697 ALL cells (697-luc2) [4]; E:T 0.5, donor 008HD): 43.47% and 44.29%
- Percent specific lysis (697 ALL cells (697-luc2) [4]; E:T 1, donor 007HD): 29.28% and 30.44%
- Percent specific lysis (697 ALL cells (697-luc2) [4]; E:T 1, donor 008HD): 77.92% and 81.24%
- Percent specific lysis (697 ALL cells (697-luc2) [4]; E:T 2, donor 007HD): 65.54% and 61.43%
- Percent specific lysis (697 ALL cells (697-luc2) [4]; E:T 2, donor 008HD): 98.09% and 98.25%

SMILES: Cc1cc2ncnn2cc1Nc1cc2c(cn1)n(C)c(=O)n2C1CCOCC1 [Compound 6, 3-methyl-6-((7-methyl-[1,2,4]triazolo[1,5-a]pyridin-6-yl)amino)-1-(tetrahydro-2H-pyran-4-yl)-1,3-dihydro-2H-imidazo[4,5-c]pyridin-2-one]
- impact of T cell expansion by DNA-PK treatment (T cells [1]): no impact
- Mean % CD3^−/GFP+ Cells (n = 3) (T cells [2]; compound 0.0625 uM): 35.10%
- Mean % CD3^− Cells (n = 3) (T cells [2]; compound 0.0625 uM): 33.87%
- Mean % CD3^−/GFP+ Cells (n = 3) (T cells [2]; compound 1 uM): 74.40%
- Mean % CD3^− Cells (n = 3) (T cells [2]; compound 1 uM): 58.30%

SMILES: Cc1cc2ncnn2cc1Nc1ncc2c(c1C)n(C1CCOCC1)c(=O)n2C [Compound 9, 3,7-dimethyl-6-((7-methyl-[1,2,4]triazolo[1,5-a]pyridin-6-yl)amino)-1-(tetrahydro-2H-pyran-4-yl)-1,3-dihydro-2H-imidazo[4,5-c]pyridin-2-one]
- Mean % CD3^−/GFP+ Cells (n = 3) (T cells [2]; compound 0.0625 uM): 28.27%
- Mean % CD3^−/GFP+ Cells (n = 3) (T cells [2]; compound 1 uM): 27.83%

SMILES: Cc1cc2ncnn2c(C)c1Nc1cc2c(cn1)n(C)c(=O)n2C1CCOCC1 [Compound 7, 6-((5,7-dimethyl-[1,2,4]triazolo[1,5-a]pyridin-6-yl)amino)-3-methyl-1-(tetrahydro-2H-pyran-4-yl)-1,3-dihydro-2H-imidazo[4,5-c]pyridin-2-one]
- impact of T cell expansion by DNA-PK treatment (T cells [1]): no impact
- Mean % CD3^−/GFP+ Cells (n = 3) (T cells [2]; compound 0.0625 uM): 29.90%
- Mean % CD3^−/GFP+ Cells (n = 3) (T cells [2]; compound 1 uM): 43.43%

SMILES: Cc1cc2ncnn2cc1Nc1ncc2c(n1)n(C1CC(O)C1)c(=O)n2C (stereo not shown) [Compound 5, 9-(3-hydroxycyclobutyl)-7-methyl-2-((7-methyl-[1,2,4]triazolo[1,5-a]pyridin-6-yl)amino)-7,9-dihydro-8H-purin-8-one]
- Mean % CD3^−/GFP+ Cells (n = 3) (T cells [2]; compound 0.0625 uM): 53.00%
- Mean % CD3^−/GFP+ Cells (n = 3) (T cells [2]; compound 1 uM): 78.97%

SMILES: CCn1c(=O)n(C2CCOCC2)c2nc(Nc3cn4ncnc4cc3C)ncc21 [Compound 2, 7-ethyl-2-((7-methyl-[1,2,4]triazolo[1,5-a]pyridin-6-yl)amino)-9-(tetrahydro-2H-pyran-4-yl)-7,9-dihydro-8H-purin-8-one]
- Mean % CD3^−/GFP+ Cells (n = 3) (T cells [2]; compound 0.0625 uM): 47.93%
- Mean % CD3^−/GFP+ Cells (n = 3) (T cells [2]; compound 1 uM): 79.40%
